One assay addresses full length ERRα (Homo sapiens (Human), UniProt P11474). The assay can be described thus: Full Length ERRα Reporter Gene Assay. To be noted: SK-BR-3 cells, ERRα-RE luciferase reporter, overnight incubation; read-out: mean pIC50 (converted). The assay is classed as cell-based. The source says:
Full Length ERRα Reporter Gene Assay
A method was established to quantitatively screen the potency of compounds with inverse agonistic activity on the nuclear receptor ERRα of the human species. The assay allows intra-cellular screening of ERRα inverse agonists in SK-BR-3 cells using an over-expression construct coding full length ERRα and a reporter construct containing an ERRα Response Element (RE) and a luciferase gene for read out. The activity is expressed in log IC50 values and can be used to determine SAR of compound families or to de-select compounds.
In this assay, reporter cells are obtained by transient co-transfection of two constructs in SK-BR-3 cells using standard transfection techniques. The first construct contains a response element of the nuclear receptor ERRα (Plasmid pLP2175, Reporter construct ERRα-RE/luc2P, cloned variant of ERRα_v2_synthRE, Switchgear Genomics, Catalog Number S900089). This sequence drives the transcription of the luciferase reporter gene in response to binding of an ERRα protein encoded by the second construct (Plasmid pLP2124: full length ERRα expression construct using pcDNA3.1/Hygro(+) as background, Invitrogen Catalog Number V87020).
The day after transfection, cells were plated into 96 well plates, test compound was added and the plates were incubated overnight. Subsequently, the firefly luciferase activity was quantified using luciferase detection reagent and luminescence readout.
Detailed Assay Description
Transfection is performed on pre-seeded SK-BR-3 cells in a T175 flask. One transfected T175 flask is sufficient for seeding 3 to 4 MW96 plates the next day, depending on the confluency of the transfected cells.
Two different media are used in this protocol for cell treatment: 1) Culture medium, i.e. McCoy's 5a with phenol red (BioWhittaker Supplier Number 12-688F), 10% FBS and 1× Penstrep.; and, 2) Assay medium, i.e. McCoy's 5a Medium phenol red free (HyClone Product Code SH30270.01) with 2% Charcoal Stripped FBS and 1× Penstrep. Compound dilutions are prepared in assay medium.
Cells are seeded at least 2 days in advance to allow the cells to adhere well to flask before transfection. Cells should be 50-80% confluent at the day of transfection.
SKBR3 cells were transfected with the transcriptional reporter construct pLP2175 and the ERRα expression construct pLP2124 (as described above).
68 μL of Lipofectamine LTX transfection reagent (Invitrogen Catalog Number 15338-100) was added dropwise to 8.9 ml Opti-MEM I Reduced Serum Medium (Gibco Catalog Number 51985-026) and incubated at room temperature for 5 to 20 minutes. 8.9 ml of this reagent mixture was added to 22 μg pLP2175+22 μg pLP2124 (ratio 1:1 and total volume 10 ml), and incubated at room temperature for 25 minutes.
10 minutes before adding the transfection mix to SKBR3 cells in a T175 flask, the culture medium was refreshed with 20 mL culture medium. Subsequently, the 10 mL DNA-Opti-MEM-Lipofectamine mixture was gently added to the cells, followed by overnight (16-24 hours) incubation at 37° C. and 5% CO2.
To harvest SKBR3 cells from a T175 flask, first the medium was removed. Subsequently, cells were washed with Phosphate Buffered Saline (PBS) (Lonza), after which the PBS was removed. To dissociate the cells, 2 ml of TrypLE Express (Invitrogen) was added to the flask, followed by incubation at 37° C. for 5 minutes. The flask was tapped until cells were detached from the bottom. Cells were collected in 8 mL of culture medium (McCoy's 5α, 10% FBS, penstrep), to achieve a single cell suspension. After cell count, cells were spun down for 5 minutes at 300 g. Next cell pellets were re-suspended to 25000 cells/80 μl assay medium (McCoy's 5a phenol red free, 2% charcoal stripped FBS, penstrep).
For compound screening, the cells were harvested (as described above). 80 μL of cell suspension (25,000 cells) was plated per well into a white, flat bottom, tissue culture treated, 96 well screening plates (Greiner). […]
Background: Reporter assays use an easily measured gene product as a stand-in for the process of interest.

The target in assay [1] is ERRα ligand binding domain (ERRα-LBD) (Homo sapiens (Human), UniProt P11474). The assay can be described thus: ERRα AlphaScreen Assay. The assay is classed as biochemical. The note with it: disruption of binding of ERRα-LBD protein to biotin-PGC1α-3 co-activator peptide; for IC50: read-out: mean pIC50 (converted). The procedure, abridged:
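Disruption of co-activator binding read by AlphaScreen: compounds in triplicate, 1% DMSO, Tris pH 7.5 buffer, room temperature. Bacterially expressed 6His-SUMO-ERRα-LBD at 0.81 nM with beads for 1 h, then 15 nM biotinylated PGC1α peptide for 2 h. IC50 from four-parameter fits, averaged as pIC50.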
In general terms: Alpha assays give light when donor and acceptor beads are brought close together.

Chain of full length ERRα (P11474 whole entry): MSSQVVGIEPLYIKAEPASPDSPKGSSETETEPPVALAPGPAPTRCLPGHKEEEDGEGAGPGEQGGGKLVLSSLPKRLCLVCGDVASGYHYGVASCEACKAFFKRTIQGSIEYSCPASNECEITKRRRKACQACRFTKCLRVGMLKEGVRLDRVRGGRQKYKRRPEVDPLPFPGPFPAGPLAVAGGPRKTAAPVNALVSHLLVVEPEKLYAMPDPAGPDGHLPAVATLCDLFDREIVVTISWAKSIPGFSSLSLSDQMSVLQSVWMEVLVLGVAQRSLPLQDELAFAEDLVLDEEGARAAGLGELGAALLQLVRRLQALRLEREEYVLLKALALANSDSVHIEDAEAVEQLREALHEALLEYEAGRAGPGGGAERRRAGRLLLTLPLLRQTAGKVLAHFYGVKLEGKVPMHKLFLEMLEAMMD
Chain of ERRα ligand binding domain (ERRα-LBD) (P11474 193-421): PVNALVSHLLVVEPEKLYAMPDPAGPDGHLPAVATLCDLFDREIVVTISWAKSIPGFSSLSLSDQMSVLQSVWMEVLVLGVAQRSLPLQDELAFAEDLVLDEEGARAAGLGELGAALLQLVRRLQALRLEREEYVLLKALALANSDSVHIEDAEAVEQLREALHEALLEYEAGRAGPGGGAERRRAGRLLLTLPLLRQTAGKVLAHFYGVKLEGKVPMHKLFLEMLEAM

As for `CCOc1cc(C2CC(=O)Nc3n[nH]cc32)ccc1OCc1ccccc1C(F)(F)F` (centres unmarked) [Example 62, 4-(3-ethoxy-4-{[2-(trifluoromethyl)phenyl]methoxy}phenyl)-2H,4H,5H,6H, 7H-pyrazolo[3,4-b]pyridin-6-one], the IC50 on full length ERRα is ≤ 316 nM. In addition, the “mean pIC50” value in assay [1] is listed as ≥ 8.
The corresponding values for `O=C1CC(c2ccc(OCc3ccccc3C(F)(F)F)c(OC(F)F)c2)c2c[nH]nc2N1` (centres unmarked) [Example 68, 4-[3-(difluoromethoxy)-4-{[2-(trifluoromethyl)phenyl]methoxy}phenyl]-2H,4H,5H,6H, 7H-pyrazolo[3,4-b]pyridin-6-one] are ≤ 316 nM and ≥ 8.
For `COc1cc(C2CC(=O)Nc3[nH]cnc32)ccc1OCc1ccccc1C(F)(F)F` (centres unmarked) [Example 89, 7-(3-methoxy-4-{[2-(trifluoromethyl)phenyl]methoxy}phenyl)-3H,4H,5H,6H, 7H-imidazo[4,5-b]pyridin-5-one], on full length ERRα, the IC50 was ≤ 316 nM. Further, the “mean pIC50” value in assay [1] is reported as ≥ 8.
On the same counts, the results for `COc1ccc(COc2ccc(C3CC(=O)Nc4[nH]nnc43)cc2OC)c(C(F)(F)F)c1` (centres unmarked) [Example 91, 7-(3-methoxy-4-{[4-methoxy-2-(trifluoromethyl)phenyl]methoxy}phenyl)-3H,4H,5H,6H,7H-[1,2,3]triazolo[4,5-b]pyridin-5-one] are ≤ 316 nM and ≥ 8.
As to `COc1cc(C2CC(=O)Nc3n[nH]nc32)ccc1OCc1ccc(C(C)=O)cc1C(F)(F)F` (centres unmarked) [Example 93, 7-(4-{[4-acetyl-2-(trifluoromethyl)phenyl]methoxy}-3-methoxyphenyl)-2H,4H,5H,6H,7H-[1,2,3]triazolo[4,5-b]pyridin-5-one], the IC50 is ≤ 316 nM at full length ERRα and 10 to 100 nM in assay [1].
The corresponding values for `COc1cc(C2CC(=O)Nc3n[nH]cc32)ccc1COc1ccc(Br)cc1C(F)(F)F` (centres unmarked) [Example 96, 4-(4-{[4-bromo-2-(trifluoromethyl)phenoxy]methyl}-3-methoxyphenyl)-2H,4H,5H,6H, 7H-pyrazolo[3,4-b]pyridin-6-one] are ≤ 316 nM and ≤ 10 nM.
Take `O=C1CC(c2ccc(COc3ccc(Br)cc3C(F)(F)F)c(OC(F)(F)F)c2)c2c[nH]nc2N1` (centres unmarked) [Example 106, 4-(4-{[4-bromo-2-(trifluoromethyl)phenoxy]methyl}-3-(trifluoromethoxy)phenyl)-2H,4H,5H,6H,7H-pyrazolo[3,4-b]pyridin-6-one]: the IC50 is ≤ 316 nM at full length ERRα and 10 to 100 nM in assay [1].
On the same counts, the results for `O=C1CC(c2ccc(COc3ccccc3S(F)(F)(F)(F)F)c(OC(F)(F)F)c2)c2c[nH]nc2N1` (centres unmarked) [Example 107, 4-(4-{[2-(pentafluoro-λ^6-sulfanyl)phenoxy]methyl}-3-(trifluoromethoxy)phenyl)-2H,4H,5H,6H, 7H-pyrazolo[3,4-b]pyridin-6-one] are ≤ 316 nM and 10 to 100 nM.
As to `COc1cc(C2CC(=O)Nc3n[nH]cc32)ccc1COc1ccc(C(F)F)cc1C(F)(F)F` (centres unmarked) [Example 115, 4-(4-{[4-(difluoromethyl)-2-(trifluoromethyl)phenoxy]methyl}-3-methoxyphenyl)-2H,4H,5H,6H,7H-pyrazolo[3,4-b]pyridin-6-one], the IC50 on full length ERRα is ≤ 316 nM. In addition, the “mean pIC50” value in assay [1] is ≥ 8.
The corresponding values for `COc1cc(C2CC(=O)Nc3n[nH]cc32)ccc1COc1ccc(C#CCO)cc1C(F)(F)F` (centres unmarked) [Example 119, 4-(4-{[4-(3-hydroxyprop-1-yn-1-yl)-2-(trifluoromethyl)phenoxy]methyl}-3-methoxyphenyl)-2H,4H,5H,6H,7H-pyrazolo[3,4-b]pyridin-6-one] are ≤ 316 nM and ≥ 8.
In the case of `COc1cc(C2CC(=O)Nc3n[nH]cc32)ccc1OCc1ccc(NC(=O)CN)cc1C(F)(F)F` (centres unmarked) [Example 140, 2-amino-N-{4-[(2-methoxy-4-{6-oxo-2H,4H,5H,6H, 7H-pyrazolo[3,4-b]pyridin-4-yl}phenoxy)methyl]-3-(trifluoromethyl)phenyl}acetamide], the figures for the IC50 (at full length ERRα; in assay [1]) were ≤ 316 nM and 100 to 1000 nM, respectively.
For the compound `C=CCc1ccc(COc2ccc(C3CC(=O)Nc4n[nH]cc43)cc2OC)c(C(F)(F)F)c1` (centres unmarked) [Example 142, 4-(3-methoxy-4-{[4-(prop-2-en-1-yl)-2-(trifluoromethyl)phenyl]methoxy}phenyl)-2H,4H,5H,6H,7H-pyrazolo[3,4-b]pyridin-6-one], the IC50 on full length ERRα is ≤ 316 nM. The “mean pIC50” value in assay [1] is ≥ 8.
Consider `COc1cc(C2CC(=O)Nc3n[nH]cc32)ccc1OCc1ccc(CC(O)CO)cc1C(F)(F)F` (centres unmarked) [Example 143, 4-(4-{[4-(2,3-dihydroxypropyl)-2-(trifluoromethyl)phenyl]methoxy}-3-methoxyphenyl)-2H,4H,5H,6H, 7H-pyrazolo[3,4-b]pyridin-6-one], for which the IC50 at full length ERRα is ≤ 316 nM. Besides, in assay [1], the “mean pIC50” value is listed as ≥ 8.
On to `CCc1ccc(COc2ccc(C3CC(=O)Nc4n[nH]cc43)cc2OC)c(C(F)(F)F)c1` (centres unmarked) [Example 144, 4-(4-{[4-ethyl-2-(trifluoromethyl)phenyl]methoxy}-3-methoxyphenyl)-2H,4H,5H,6H, 7H-pyrazolo[3,4-b]pyridin-6-one], for which the IC50 on full length ERRα was ≤ 316 nM. For the same compound, the “mean pIC50” value in assay [1] is recorded as ≥ 8.
On the same counts, the results for `COc1cc(C2CC(=O)Nc3n[nH]cc32)ccc1OCc1ccc(C2CC2)cc1C(F)(F)F` (centres unmarked) [Example 145, 4-(4-{[4-cyclopropyl-2-(trifluoromethyl)phenyl]methoxy}-3-methoxyphenyl)-2H,4H,5H,6H, 7H-pyrazolo[3,4-b]pyridin-6-one] are ≤ 316 nM and ≥ 8.
As for `COc1cc(C2CC(=O)Nc3n[nH]cc32)ccc1OCc1ccc(C#CCO)cc1C(F)(F)F` (centres unmarked) [Example 146, 4-(4-{[4-(3-hydroxyprop-1-yn-1-yl)-2-(trifluoromethyl)phenyl]methoxy}-3-methoxyphenyl)-2H,4H,5H,6H, 7H-pyrazolo[3,4-b]pyridin-6-one], the IC50 at full length ERRα is ≤ 316 nM. Further, the “mean pIC50” value in assay [1] is listed as ≥ 8.
Turning to `COc1cc(C2CC(=O)Nc3n[nH]cc32)ccc1OCc1ccc(CC#N)cc1C(F)(F)F` (centres unmarked) [Example 147, 2-[4-(2-methoxy-4-{6-oxo-2H,4H,5H,6H, 7H-pyrazolo[3,4-b]pyridin-4-yl}phenoxymethyl)-3-(trifluoromethyl)phenyl]acetonitrile], the IC50 on full length ERRα is ≤ 316 nM; in assay [1], 100 to 1000 nM.
In the case of `COc1cc(C2CC(=O)Nc3n[nH]cc32)ccc1OCc1ccc(CCCO)cc1C(F)(F)F` (centres unmarked) [Example 149, 4-(4-{[4-(3-hydroxypropyl)-2-(trifluoromethyl)phenyl]methoxy}-3-methoxyphenyl)-2H,4H,5H,6H, 7H-pyrazolo[3,4-b]pyridin-6-one], on full length ERRα, the IC50 was ≤ 316 nM. Further, in assay [1], the “mean pIC50” value is given as ≥ 8.
For the compound `COc1cc(C2CC(=O)Nc3n[nH]cc32)ccc1OCc1ccc(CCN)cc1C(F)(F)F` (centres unmarked) [Example 150, 4-(4-{[4-(2-aminoethyl)-2-(trifluoromethyl)phenyl]methoxy}-3-methoxyphenyl)-2H,4H,5H,6H, 7H-pyrazolo[3,4-b]pyridin-6-one], the IC50 on full length ERRα is ≤ 316 nM; in assay [1], 100 to 1000 nM.

Values taken from patent publication US12527774B2, “Estrogen-related receptor alpha modulators” (LEAD PHARMA HOLDING B.V., priority 2019, dated 2026).
